Legend:
[1] = biological target: leucine zipper c-MYC-MAX heterodimer (Homo sapiens, UniProt P01106+P61244); conditions: histidine at the center of c-MYC-MAX leucine zipper; cited from earlier work
[2] = cited from earlier work; for pKa (second of two pKa's): higher of the two pKa's of the side-chain moiety; for pKa (first of two pKa's): lower of the two pKa's of the side-chain moiety
[3] = biological target: mu-yPheRS (modified yeast PheRS, Thr415Gly) (Saccharomyces cerevisiae, UniProt P15625, T415G); conditions: Nal versus Phe
Protocol: The modified yeast PheRS (mu-yPheRS) was prepared by introduction of a Thr415Gly mutation in the α-subunit of the synthetase (Datta et al., J. Am. Chem. Soc. 124: 5652, 2002). The kinetics of activation of Nal and Phe by mu-yPheRS were analyzed in vitro via the pyrophosphate exchange assay.

E. coli LeuRS = E. coli LeuRS (Escherichia coli, UniProt P07813); conditions: in vitro; cited from earlier work
E. coli = experiment: growth and Nal incorporation of E. coli expression host with added AZL; format: cell-based; conditions: AZL added to the medium
Protocol: Incomplete occupancy of the UUG codon by Nal is due at least in part to competition with leucine-charged E. coli tRNA^LeuS. In an attempt to reduce competition by E. coli tRNA^LeuS, use of a mutant E. coli strain lacking tRNA^LeuCAA and addition of an E. coli leucyl-tRNA synthetase (LeuRS) inhibitor were tested. A Phe/Leu double auxotrophic strain derived from the tRNA^LeuCAA-deficient strain XA106 (CGSC at Yale) was tested for incorporation of Nal at the UUG codon.
Peptide 5UUG/UUG (residues 26-35, […], SEQ ID NO: 8) contains two Leu residues encoded as UUG. Upon addition of Nal, the masses of these fragments shift in accord with the mass difference between Nal and Leu. Only Nal (a), Nal and 1 mM AZL (b) were supplemented into the media.

Sequence of mu-yPheRS (modified yeast PheRS, Thr415Gly) (P15625 whole entry T415G): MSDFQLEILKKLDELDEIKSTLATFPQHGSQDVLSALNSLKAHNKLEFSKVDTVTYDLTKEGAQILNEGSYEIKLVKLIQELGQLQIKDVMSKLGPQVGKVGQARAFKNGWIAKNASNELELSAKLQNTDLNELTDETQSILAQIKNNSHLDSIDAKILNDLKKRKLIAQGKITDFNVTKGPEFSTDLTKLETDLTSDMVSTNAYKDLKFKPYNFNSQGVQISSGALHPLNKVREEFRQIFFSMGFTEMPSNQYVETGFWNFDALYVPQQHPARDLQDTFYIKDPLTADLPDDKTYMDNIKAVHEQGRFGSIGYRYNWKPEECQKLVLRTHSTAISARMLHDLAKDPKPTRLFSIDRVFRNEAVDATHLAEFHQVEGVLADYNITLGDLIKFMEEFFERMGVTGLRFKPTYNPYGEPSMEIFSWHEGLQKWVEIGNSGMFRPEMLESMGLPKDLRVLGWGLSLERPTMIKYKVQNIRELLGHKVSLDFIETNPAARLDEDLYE
Sequence of mu-yPheRS (modified yeast PheRS, Thr415Gly) (P15624 whole entry, further chain): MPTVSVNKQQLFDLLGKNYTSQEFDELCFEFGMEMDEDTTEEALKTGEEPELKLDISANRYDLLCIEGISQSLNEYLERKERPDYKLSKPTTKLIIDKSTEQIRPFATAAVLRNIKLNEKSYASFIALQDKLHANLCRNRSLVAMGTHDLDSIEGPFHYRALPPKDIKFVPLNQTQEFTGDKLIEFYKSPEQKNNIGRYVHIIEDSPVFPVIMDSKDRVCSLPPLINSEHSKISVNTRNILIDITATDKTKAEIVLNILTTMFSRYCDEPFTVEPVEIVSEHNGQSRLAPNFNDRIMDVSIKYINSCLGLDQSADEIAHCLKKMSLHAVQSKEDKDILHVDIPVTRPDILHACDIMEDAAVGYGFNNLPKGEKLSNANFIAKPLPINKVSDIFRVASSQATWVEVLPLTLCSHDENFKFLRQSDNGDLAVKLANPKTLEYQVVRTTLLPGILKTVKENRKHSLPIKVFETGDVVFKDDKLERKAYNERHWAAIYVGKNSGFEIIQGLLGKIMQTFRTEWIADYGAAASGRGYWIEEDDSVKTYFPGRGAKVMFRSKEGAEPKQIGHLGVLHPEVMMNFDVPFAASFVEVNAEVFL
Sequence of leucine zipper c-MYC-MAX heterodimer (P01106 428-449 limits assumed): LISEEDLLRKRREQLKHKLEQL
Sequence of leucine zipper c-MYC-MAX heterodimer (P61244 81-102 limits assumed): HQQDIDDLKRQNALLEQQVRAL
Sequence of E. coli LeuRS (P07813 whole entry): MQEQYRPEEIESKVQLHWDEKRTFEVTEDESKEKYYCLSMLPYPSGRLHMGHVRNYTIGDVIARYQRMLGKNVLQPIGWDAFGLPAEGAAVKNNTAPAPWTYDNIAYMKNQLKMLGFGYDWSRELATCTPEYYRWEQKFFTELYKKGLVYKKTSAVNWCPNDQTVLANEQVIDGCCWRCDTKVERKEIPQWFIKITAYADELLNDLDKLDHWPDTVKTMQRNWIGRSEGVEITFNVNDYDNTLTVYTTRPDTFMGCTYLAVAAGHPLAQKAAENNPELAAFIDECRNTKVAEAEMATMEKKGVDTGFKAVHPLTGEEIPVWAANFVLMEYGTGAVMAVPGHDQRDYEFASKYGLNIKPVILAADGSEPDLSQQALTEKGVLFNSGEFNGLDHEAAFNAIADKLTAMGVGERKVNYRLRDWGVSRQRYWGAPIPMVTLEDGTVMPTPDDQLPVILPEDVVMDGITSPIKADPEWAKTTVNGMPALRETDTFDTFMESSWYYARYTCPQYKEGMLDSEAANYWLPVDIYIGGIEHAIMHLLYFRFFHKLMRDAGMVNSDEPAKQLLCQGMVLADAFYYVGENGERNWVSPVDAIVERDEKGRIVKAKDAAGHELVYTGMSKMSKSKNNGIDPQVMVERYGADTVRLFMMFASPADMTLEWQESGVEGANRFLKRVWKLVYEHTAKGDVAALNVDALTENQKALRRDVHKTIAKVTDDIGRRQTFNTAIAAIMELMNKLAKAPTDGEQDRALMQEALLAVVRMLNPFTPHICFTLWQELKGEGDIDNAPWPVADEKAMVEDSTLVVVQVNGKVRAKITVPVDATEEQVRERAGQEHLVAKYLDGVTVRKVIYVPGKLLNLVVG

N[C@@H](Cc1c[nH]cn1)C(=O)O [histidine]
histidine pKa, experimental value [1]: 7.19 | pKa (second of two pKa's) [2]: 14.52 | pKa (first of two pKa's) [2]: 7.05

N[C@@H](Cc1ccc2ccccc2c1)C(=O)O [Nal, L-3-(2-naphthyl)alanine]
kcat/KM relative to that for Phe [3]: 8 fold

CN(C)CC(N)C(=O)O (racemic) [AZL, 4-Aza-DL-leucine]
inhibition of E. coli LeuRS (E. coli LeuRS): competitive inhibitor | growth rate of the host (E. coli): reduced the growth rate | occupancy of the UUG codon by Nal (E. coli; mDHFR expression): enhanced occupancy

N[C@@H](Cc1c[nH]c(F)n1)C(=O)O [2-fluoro-histidine]
pKa (second of two pKa's) [2]: 11.5 | pKa (first of two pKa's) [2]: 4.0

— patent US20050260711A1, “Modulating pH-sensitive binding using non-natural amino acids” (priority 2004, published 2005)
